Experimental data: patent US20160257697A1, “THIOPHENE-SUBSTITUTED TETRACYCLIC COMPOUNDS AND METHODS OFUSE THEREOF FOR THE TREATMENT OF VIRAL DISEASES” (priority 2013, published 2016)
pIC50: −log10 of the molar value. Like-named read-outs stand apart in the source and are kept apart here.

Assays:
Assay in all cases: microbe, parasite or virus in culture
Assay type in all cases: cell-based, Hepatitis C virus (HCV)
[1] = test system: HCV replicon 2B
Summary of the method: (§1)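 Three-day treatment of replicon cells (2000/well, 5% FBS, 0.5% DMSO), followed by TaqMan RT-PCR of replicon RNA with cyclophilin as internal control.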

[2] = test system: HCV replicon 1AY93H
Summary of the method: as §1

[3] = test system: HCV replicon 1A; conditions: replicon 1A, Replicon Assay A
Summary of the method: as §1

[4] = test system: HCV replicon 1B; conditions: replicon 1B, Replicon Assay B
[5] = test system: HCV replicon 1AQ30D
[6] = Hepatitis C virus, read-out: 2B IC50 (nM), replicon 2B; Replicon Assay A
[7] = Hepatitis C virus, read-out: 1A Y93H IC50 (nM), replicon 1AY93H; Replicon Assay A
[8] = Hepatitis C virus, read-out: 1A Q30D IC50 (nM), replicon 1AQ30D; Replicon Assay B
[9] = read-out: 2B IC50; replicon 2B; Replicon Assay A
[10] = read-out: 1A Y93H IC50; replicon 1AY93H; Replicon Assay A
[11] = read-out: 1A Q30D IC50; replicon 1AQ30D; Replicon Assay B

Structure (SMILES) | pIC50 ([1]; replicon 2B; Replicon Assay A; read-out: 2B IC50) | pIC50 ([2]; replicon 1AY93H; Replicon Assay A; read-out: 1A Y93H IC50) | pIC50 [3] | pIC50 [4] | pIC50 ([5]; replicon 1AQ30D; Replicon Assay B; read-out: 1A Q30D IC50) | IC50 [1, 6] [nM] | IC50 [2, 7] [nM] | pIC50 ([3]; Hepatitis C virus) | pIC50 ([4]; Hepatitis C virus) | IC50 [5, 8] [nM] | pIC50 [1, 9] | pIC50 [2, 10] | pIC50 [5, 11]
COC(=O)N[C@H](C(=O)N1CCC[C@@H]1c1cnc(-c2cc(F)c3c(c2)OC(c2ccc(C4(O)CC4)s2)n2c-3cc3cc(-c4ncc([C@@H]5CCCN5C(=O)[C@@H](NC(=O)OC)C(C)C)[nH]4)ccc32)[nH]1)C(C)C (stereo partly shown) [Compound 61] | 10.92 | 10.85 | 11.96 | 11.96 | 9.66 |  |  |  |  |  |  |  | 
COC(=O)NC(C(=O)N1[C@@H]2C[C@@H]2C[C@H]1c1ncc(-c2ccc3c(c2)cc2n3C(c3ccc(C4CC4)s3)Oc3cc(-c4cnc([C@@H]5CCCN5C(=O)[C@@H](NC(=O)OC)C(C)C)[nH]4)cc(F)c3-2)[nH]1)C(C)(C)F (stereo partly shown) [Compound 93] |  |  |  |  |  | 0.054 | 0.007 | 11.52 | 11.60 | 0.053 |  |  | 
COC(=O)N[C@H](C(=O)N1CCC[C@H]1c1ncc(-c2cc(F)c3c(c2)OC(c2ccc(CC(F)(F)F)s2)n2c-3cc3cc(-c4cnc([C@@H]5CCCN5C(=O)[C@@H](NC(=O)OC)C(C)C)[nH]4)ccc32)[nH]1)C(C)C (stereo partly shown) [Compound 125] |  |  |  |  |  | 0.089 | 0.018 | 11.64 | 11.89 | 0.29 |  |  | 
COC(=O)N[C@H](C(=O)N1CCC[C@H]1c1ncc(-c2cc(F)c3c(c2)OC(c2ccc(C4CC4)s2)n2c-3cc3cc(-c4cnc([C@@H]5CCCN5C(=O)[C@@H](NC(=O)OC)C5CCOCC5)[nH]4)ccc32)[nH]1)C(C)C (stereo partly shown) [Compound 127] |  |  |  |  |  | 0.003 | 0.002 | 11.70 | 11.55 | 0.02 |  |  | 
COC(=O)NC(C(=O)N1CCC[C@H]1c1ncc(-c2ccc3c(c2)cc2n3C(c3cc(C)c(C)s3)Oc3cc(-c4cnc([C@@H]5CCCN5C(=O)[C@@H](NC(=O)OC)C5CCOCC5)[nH]4)cc(F)c3-2)[nH]1)C(C)(C)F (stereo partly shown) [Compound 128] |  |  |  |  |  | 0.045 | 0.03 | 11.52 | 11.44 | 0.044 |  |  | 
CCc1ccc(C2Oc3cc(-c4cnc([C@@H]5CCCN5C(=O)[C@@H](NC(=O)OC)C(C)C)[nH]4)cc(F)c3-c3cc4cc(-c5cnc([C@@H]6CCCN6C(=O)[C@H](NC(=O)OC)C6C[C@@H](C)O[C@@H](C)C6)[nH]5)ccc4n32)s1 (stereo partly shown) [Compound 144] |  |  |  |  |  | 0.022 | 0.003 | 11.52 | 11.68 | 0.057 |  |  | 
CCc1ccc(C2Oc3cc(-c4cnc([C@@H]5CCCN5C(=O)[C@@H](NC(=O)OC)C(C)C)[nH]4)cc(F)c3-c3cc4cc(-c5cnc([C@@H]6CCCN6C(=O)[C@H](NC(=O)OC)C6COCC(C)(C)C6)[nH]5)ccc4n32)s1 (stereo partly shown) [Compound 150] |  |  |  |  |  | 0.007 | 0.004 | 11.62 | 11.72 | 0.094 |  |  | 
CCc1ccc(C2Oc3cc(-c4cnc([C@@H]5CCCN5C(=O)[C@@H](NC(=O)OC)C(C)C)[nH]4)cc(F)c3-c3cc4cc(-c5cnc([C@@H]6CCCN6C(=O)[C@H](NC(=O)OC)C6CCOC(C)(C)C6)[nH]5)ccc4n32)s1 (stereo partly shown) [Compound 151] |  |  |  |  |  | 0.004 | 0.003 | 11.70 | 11.62 | 0.022 |  |  | 
COC(=O)NC(C(=O)N1CCC[C@H]1c1ncc(-c2cc(F)c3c(c2)OC(c2ccc(C4CC4)s2)n2c-3cc3cc(-c4cnc([C@@H]5CCCN5C(=O)[C@@H](NC(=O)OC)C5CCOCC5)[nH]4)ccc32)[nH]1)C(C)(C)F (stereo partly shown) [Compound 168] |  |  |  | 11.82 |  |  |  | 11.89 |  | 0.011 | 11.70 | 11.70 | 
COC(=O)NC(C(=O)N1CCC[C@H]1c1ncc(-c2cc(F)c3c(c2)OC(c2ccc(C4CC4)s2)n2c-3cc3cc(-c4cnc([C@@H]5CCCN5C(=O)[C@@H](NC(=O)OC)C(C)C)[nH]4)ccc32)[nH]1)C1C[C@@H](C)O[C@@H](C)C1 (stereo partly shown) [Compound 188] |  |  |  |  |  | 0.005 | 0.002 | 11.77 | 11.92 | 0.02 |  |  | 
COC(=O)N[C@H](C(=O)N1CCC[C@H]1c1nc(-c2cc(F)c3c(c2)OC(c2ccc(C4CC4)s2)n2c-3cc3cc(-c4cnc([C@@H]5CCCN5C(=O)[C@@H](NC(=O)OC)C5C[C@@H](C)O[C@@H](C)C5)[nH]4)ccc32)c[nH]1)C(C)C (stereo partly shown) [Compound 190] |  |  |  |  |  | 0.003 | 0.002 | 11.96 | 11.85 | 0.013 |  |  | 
COC(=O)NC(C(=O)N1CCC[C@H]1c1ncc(-c2ccc3c(c2)cc2n3C(c3ccc(C4CC4)s3)Oc3cc(-c4cnc([C@@H]5CCCN5C(=O)[C@@H](NC(=O)OC)C(C)C)[nH]4)cc(F)c3-2)[nH]1)C1C[C@@H](C)O[C@@H](C)C1 (stereo partly shown) [Compound 208] |  |  |  |  |  | 0.005 | 0.008 | 11.51 | 11.49 | 0.043 |  |  | 
COC(=O)NC(C(=O)N1CCC[C@H]1c1ncc(-c2ccc3c(c2)cc2n3C(c3ccc(C4CC4)s3)Oc3cc(-c4cnc([C@@H]5CCCN5C(=O)[C@@H](NC(=O)OC)C(C)C)[nH]4)cc(F)c3-2)[nH]1)C1CCOC(C)(C)C1 (stereo partly shown) [Compound 218] |  |  |  |  |  | 0.004 | 0.004 | 11.59 | 11.51 | 0.055 |  |  | 
COC(=O)NC(C(=O)N1CCC[C@H]1c1ncc(-c2ccc3c(c2)cc2n3C(c3ccc(C4CC4)s3)Oc3cc(-c4cnc([C@@H]5CCCN5C(=O)[C@@H](NC(=O)OC)C(C)C)[nH]4)cc(F)c3-2)[nH]1)C1CCOC(C)(C)C1 (stereo partly shown) [Compound 219] |  |  | 11.66 | 11.49 |  |  |  |  |  |  | 11.30 | 11.52 | 10.47
COC(=O)N[C@H](C(=O)N1CCC[C@@H]1c1ncc(-c2cc(F)c3c(c2)OC(c2ccc(C(C)C)s2)n2c-3cc3cc(-c4c[nH]c([C@@H]5CCCN5C(=O)[C@H](NC(=O)OC)C5C[C@@H](C)O[C@@H](C)C5)n4)ccc32)[nH]1)C(C)C (stereo partly shown) [Compound 234] |  |  | 11.48 |  |  | 0.02 | 0.004 |  | 11.55 | 0.05 |  |  | 
COC(=O)N[C@H](C(=O)N1CCC[C@@H]1c1ncc(-c2cc(F)c3c(c2)OC(c2ccc(C(C)C)s2)n2c-3cc3cc(-c4c[nH]c([C@@H]5CCCN5C(=O)[C@H](NC(=O)OC)C5C[C@@H](C)O[C@@H](C)C5)n4)ccc32)[nH]1)C(C)C (stereo partly shown) [Compound 240] |  |  | 11.68 | 11.57 |  |  |  |  |  |  | 10.96 | 11.30 | 10.21
COC(=O)N[C@H](C(=O)N1CCC[C@@H]1c1ncc(-c2cc(F)c3c(c2)OC(c2ccc(C(C)C)s2)n2c-3cc3cc(-c4c[nH]c([C@@H]5CCCN5C(=O)[C@H](NC(=O)OC)C5C[C@@H](C)O[C@@H](C)C5)n4)ccc32)[nH]1)C(C)C (stereo partly shown) [Compound 241] |  |  | 11.80 | 11.62 |  |  |  |  |  |  | 10.80 | 11.30 | 10.48
COC(=O)NC(C(=O)N1CCC[C@H]1c1ncc(-c2cc(F)c3c(c2)OC(c2ccc(C4CCC4)s2)n2c-3cc3cc(-c4cnc([C@@H]5CCCN5C(=O)[C@@H](NC(=O)OC)C5CCOCC5)[nH]4)ccc32)[nH]1)C(C)(C)F (stereo partly shown) [Compound 250] |  |  |  |  |  | 0.001 | 0.003 | 11.66 | 11.54 | 0.013 |  |  | 
COC(=O)NC(C(=O)N1[C@@H]2C[C@@H]2C[C@H]1c1ncc(-c2ccc3c(c2)cc2n3C(c3ccc(C4CC4)s3)Oc3cc(-c4cnc([C@@H]5CCCN5C(=O)[C@@H](NC(=O)OC)C(C)C)[nH]4)cc(F)c3-2)[nH]1)C1CCOC(C)(C)C1 (stereo partly shown) [Compound 275] |  |  |  |  |  | 0.006 | 0.003 | 11.72 | 11.49 | 0.023 |  |  | 
COC(=O)N[C@H](C(=O)N1CCC[C@@H]1c1ncc(-c2cc(F)c3c(c2)OC(c2ccc(C(C)C)s2)n2c-3cc3cc(-c4c[nH]c([C@@H]5C[C@@H]6C[C@@H]6N5C(=O)[C@H](NC(=O)OC)C5C[C@@H](C)O[C@@H](C)C5)n4)ccc32)[nH]1)C(C)C (stereo partly shown) [Compound 284] |  |  |  |  |  | 0.024 | 0.002 | 11.74 | 11.68 | 0.021 |  |  | 
